ChEMBL document CHEMBL1800066 (J Med Chem, 2011)
Activity calls are given as the source filed them. The calls are words filed in the database; no cut-off is given here.

Experiments:
[1] = target: Receptor-type tyrosine-protein kinase FLT3 (Homo sapiens, UniProt P36888); experiment: Inhibition of human Flt3
[2] = Tmax in mouse at 2 mg/kg, po; assay type: ADME, organism-based; set-up: dose 2 mg/kg, route oral; conditions: in vivo
[3] = AUC (0 to infinity) in rat at 5 mg/kg, po; assay type: ADME, organism-based; set-up: dose 5 mg/kg, route oral, time infinity; conditions: plasma
[4] = target: T1, Hepatocyte growth factor receptor (Homo sapiens, UniProt P08581); experiment: Binding affinity to human recombinant His6-tagged phosphorylated c-Met cytosolic domain
Canis familiaris [5] = experiment: AUC (0 to infinity) in dog at 2 mg/kg, po; assay type: ADME, organism-based, Canis lupus familiaris, Plasma; set-up: time infinity, dose 2 mg/kg, route oral; conditions: in vivo
[6] = AUC (0 to infinity) in monkey at 0.5 mg/kg, po; assay type: ADME, organism-based, Macaca mulatta; set-up: time infinity, dose 0.5 mg/kg, route oral; conditions: rhesus monkey, plasma
[7] = Volume of distribution at steady state in monkey at 0.25 mg/kg, iv; assay type: ADME, organism-based, Macaca mulatta; set-up: dose 0.25 mg/kg, route intravenous; conditions: rhesus monkey, in vivo, read-out: Vdss
Canis familiaris [8] = experiment: Oral bioavailability in dog at 2 mg/kg; assay type: ADME, organism-based, Canis lupus familiaris; conditions: in vivo
[9] = Plasma clearance in monkey at 0.25 mg/kg, iv; assay type: ADME, organism-based, Macaca mulatta; set-up: dose 0.25 mg/kg, route intravenous; conditions: rhesus monkey
[10] = Cmax in monkey at 0.5 mg/kg, po; assay type: ADME, organism-based, Macaca mulatta; set-up: dose 0.5 mg/kg, route oral; conditions: rhesus monkey, in vivo
[11] = target: T1, Hepatocyte growth factor receptor; experiment: Inhibition of recombinant human c-MET phosphorylation at C-terminal Y1230
[12] = Half life in mouse at 1 mg/kg, iv; assay type: ADME, organism-based; set-up: dose 1 mg/kg, route intravenous; conditions: in vivo
[13] = target: Hepatocyte growth factor receptor (Homo sapiens, UniProt P08581, Y1230H)
Cytochrome P450 2D6 = Cytochrome P450 2D6 (Homo sapiens, UniProt P10635); experiment: Inhibition of CYP2D6; assay type: ADME
[14] = Oral bioavailability in monkey at 0.5 mg/kg; assay type: ADME, organism-based, Macaca mulatta; conditions: rhesus monkey, in vivo
[15] = Half life in rat at 2 mg/kg, iv and 5 mg/kg, po; assay type: ADME, organism-based; conditions: in vivo
[16] = target: Hepatocyte growth factor receptor (Homo sapiens, UniProt P08581, Y1230C)
[17] = Plasma clearance in dog at 1 mg/kg, iv; assay type: ADME, organism-based, Canis lupus familiaris; set-up: dose 1 mg/kg, route intravenous
[18] = AUC (0 to infinity) in mouse at 1 mg/kg, iv; assay type: ADME, organism-based; set-up: time infinity, dose 1 mg/kg, route intravenous; conditions: plasma
[19] = target: Hepatocyte growth factor receptor (Homo sapiens, UniProt P08581, Y1235D)
Mus musculus = experiment: Inhibition of c-Met phosphorylation at Y1349 in human GTL16 cells xenografted in CD1 nu/nu mouse at 10 to 100 mg/kg, po BID measured after 4 hrs by immunostaining assay; assay type: functional, organism-based
[20] = target: T1, Hepatocyte growth factor receptor; experiment: Inhibition of c-MET overexpressed in human GTL-16 cells assessed as phosphorylation at C-terminal Y1349 after 2 hrs by Western blot analysis; assay type: cell-based
[21] = target: Tyrosine-protein kinase ABL1 (Homo sapiens, UniProt P00519); experiment: Inhibition of human Abl
[22] = target: T1, Hepatocyte growth factor receptor; experiment: Inhibition of recombinant human c-MET phosphorylation at C-terminal Y1349
[23] = Plasma clearance in mouse at 1 mg/kg, iv; assay type: ADME, organism-based; set-up: dose 1 mg/kg, route intravenous
[24] = target: Vascular endothelial growth factor receptor 2 (Homo sapiens, UniProt P35968); experiment: Inhibition of human KDR

With `CN(C[C@@H]1COCCO1)S(=O)(=O)Nc1ccc2ccc3ncc(-c4cnn(C)c4)cc3c(=O)c2c1` [MK-2461] as the compound, how does the IC50 [1] read?
Its IC50 is 22 nM.

What about the Tmax [2] of the same compound?
Its Tmax is 18 min.

What about the AUC(0-inf) [3] of the same compound?
Its AUC(0-inf) is 11.8 µM·h.

And the Kd [4]?
Its Kd is 4 nM.

What about the AUC (Canis familiaris [5]) of the same compound?
The AUC was 13.7 µM·h.

And the AUC(0-inf) [6]?
Its AUC(0-inf) is 0.4 µM·h.

What about the Vd [7] of the same compound?
Its Vd is 0.5 L/kg.

What about the F (Canis familiaris [8]) of the same compound?
Its F is 13%.

And the clearance [9]?
The clearance was 8.4 mL/min/kg.

And the Cmax [10]?
The Cmax was 120 nM.

And the IC50 [11]?
Its IC50 is 900 nM.

What about the half-life [12] of the same compound?
Its half-life is 30 min.

What about the IC50 [13] of the same compound?
Its IC50 is 1 nM.

And the IC50 (Cytochrome P450 2D6)?
The IC50 was over 100000 nM.

And the bioavailability [14]?
Its bioavailability is 14%.

And the half-life [15]?
Its half-life is 48 min.

What about the IC50 [16] of the same compound?
Its IC50 is 1.5 nM.

What about the clearance [17] of the same compound?
The clearance was 4.3 mL/min/kg.

And the AUC(0-inf) [18]?
Its AUC(0-inf) is 0.4 µM·h.

What about the IC50 [19] of the same compound?
Its IC50 is 0.5 nM.

What about the inhibition (Mus musculus) of the same compound?
The inhibition was “Active”.

And the IC50 [20]?
Its IC50 is 56 nM.

What about the IC50 [21] of the same compound?
The IC50 was 7800 nM.

What about the IC50 [22] of the same compound?
Its IC50 is 100 nM.

What about the clearance [23] of the same compound?
The clearance was 83 mL/min/kg.

And the IC50 [24]?
Its IC50 is 44 nM.
